From patent publication US20170231931A1, “PRODUCTS FOR THE TREATMENT AND PREVENTION OF NEUROLOGICAL DISORDERS COURSING WITH A COGNITION DEFICIT OR IMPAIRMENT, AND OF NEURODEGENERATIVE DISEASES” (FUNDACIÓN PARA LA INVESTIGACIÓN MÉDICA APLICADA, priority 2014, published 2017)

How the values were obtained:
[1] = system: acetylated histone 3 at Lys9 (AcH3K9); assay: HDAC activity in wild type neurons: Western blot of acetylated histone 3 (AcH3K9) in primary neuronal cultures; assay type: cell-based, mice; conditions: 2 h
Experimental: (§1) The cellular assay to determine HDAC activity was assessed by Western blot analysis using a specific antibody against acetylated histone 3 at Lys9 (AcH3K9, Cell Signalling).
Primary neuronal cultures derived from the hippocampus and cortex of embryonic day 16 of wild type mice were used. Tissue was triturated using glass pipettes until neurons were dissociated. Neurons were plated with serum-free neurobasal media with B27 supplement (Invitrogen, Gaithersburg, Md.) and 2 mM L-glutamine on poly-L-lysine-treated (0.1 mg/ml; Sigma) 35 mm dishes.
To determine the concentration-response curve effect of Vorinostat and Tadalafil, cell cultures of 15 days in vitro were treated at different concentrations (10, 100 and 500 nM) during 2 h (Table 5).
Thus, to determine if a synergistic effect on epigenetic mark (AcH3) exists when both compounds are combined, Vorinostat at 50 nM was combined with Tadalafil at different concentrations (12.5, 25, 50, 100 and 200 nM) during 2 h (Table 6).
(§2) Cells were collected in a buffer containing a cold lysis buffer with protease inhibitors (0.2 M NaCl, 0.1 M HEPES (4-(2-hydroxyethyl)-1-piperazineethanesulfonic acid), 10% glycerol, 200 mM NaF, 2 mM Na4P2O7, 5 mM EDTA (ethylenediaminetetraacetic acid), 1 mM EGTA (ethylene glycol tetraacetic acid), 2 mM DTT (dithiothreitol), 0.5 mM PMSF (phenylmethylsulfonyl fluoride), 1 mM Na3VO4 and Complete Protease Inhibitor Cocktail, Roche Diagnostics), centrifuged at 14,000×g 4° C. for 20 min and the supernatant was aliquoted and stored at −80° C. Total protein concentrations were determined using the BioRad Bradford protein assay (BioRad Laboratories).
Protein samples were mixed with Laemmli sample buffer, resolved onto SDS-polyacrylamide gels and transferred to nitrocellulose membrane. The membranes were blocked with 5% milk, 0.05% Tween-20 in PBS (Phosphate-Buffered Saline) or TBS (Tris-Buffered Saline) followed by overnight incubation with the following primary antibodies: rabbit polyclonal anti-acetylated Histone 3 (acetyl K9, Cell Signalling 1:1000), mouse monoclonal anti-actin (Sigma, 1:50000) in the corresponding buffer. Following two washes in TBS/Tween20 and one wash in TBS alone, immunolabeled protein bands were detected by using HRP-conjugated anti-rabbit or anti-mouse antibody (Santa Cruz; dilution 1:5000) following an enhanced chemiluminescence system (ECL, GE Healthcare Bioscience, Buckinghamshire, UK), and autoradiographic exposure to HyperfilmtECL (GE Healthcare Bioscience). Quantity One™ software v.4.6.3 (Bio-Rad) was used for quantification.

[2] = system: acetylated histone 3 at Lys9 (AcH3K9); assay: HDAC activity in SHSY-5Y: Western blot of acetylated histone 3 (AcH3K9); assay type: cell-based, human; conditions: Vorinostat 10 nM alone, 2 hours, SHSY-5Y cell line
Experimental: as §1
A human neuroblastoma cell line (SHSY-5Y) was also used. Cell line was obtained from ATCC (CRL-2266) (Biedler et al., Cancer Research, 38, 3751-3757 1978) and cultured in 35 mm plates (Becton Dickinson, N.J.). The cells were grown to 90% confluence at 37° C. in an atmosphere of 5% CO2 and in Dulbecco's modified Eagle's medium supplemented with Glutamax (Gibco, Invitrogen, CA), 100 units/ml penicillin/streptomycin, 1× Minimum Essential Media (MEM) non essential amino acids and 10% fetal bovine serum (Gibco, Invitrogen, CA).
as §2, with “Laboratories). […]” for “Laboratories).”

Tg2576 mice [3] = assay: Fear Conditioning (FC) test, memory function in aged-Tg2576 mice; assay type: in vivo; conditions: Tg2576 mice (14-16 month), chronic treatment; Vorinostat 12.5 mg/kg i.p., Tadalafil 1 mg/kg p.o.; mean ± standard deviation
Experimental: (§3) The effect on memory function of Vorinostat (12.5 mg/kg, i.p.), Tadalafil (1 mg/Kg p.o.) and the combination (Vorinostat, 12.5 mg/Kg+Tadalafil 1 mg/Kg) was studied in Tg2576 mice (14-16 month) after a chronic treatment of 2-5 weeks by using two different behavioral tasks: the Fear Conditioning (FC) and the Morris water maze (MWM) tests. Tg2576 mice express the human 695-aa isoform of APP (hAPP) containing the Swedish double mutation, which favours AP production.
The behavioural procedure of FC task involved three phases: habituation, training and testing. During habituation phase, mice were habituated to the conditioning box (context) for 5 min with no stimuli presented. 24 hours later (training phase), mice were placed in the training chamber and allowed to explore for 2 min, afterward, a footshock (0.3 mA) unconditioned stimulus was administered (2 s) and 30 s after mice were returned to their home cage.
Mice were returned to the conditioning chamber 24 h after training and allowed to explore the context for 2 min, during which freezing behavior was recorded (contextual long term memory). Freezing scores were expressed as percentages. The conditioning procedure was carried out in a StartFear system (Panlab S.L., Barcelona, Spain) that allows recording and analysis of the signal generated by the animal movement through a high sensitivity Weight Transducer system. […]

Tg2576 mice [4] = assay: Morris water maze (MWM) test, memory retention in aged-Tg2576 mice; assay type: in vivo; conditions: Retention phase of MWM test, day 9th, Vorinostat 12.5 mg/Kg i.p., Tadalafil 1 mg/Kg p.o., mean ± standard deviation
Experimental: as §3
(§4) The MWM and the revesal_MWM test was used to evaluate spatial memory as previously described (Ricobaraza et al., 2009; Neuropsychopharmacology, 34, 1721-1732 and Ricobaraza et al., 2011, Frontiers in bioscience, 3, 1375-84). After 3 weeks of treatments, groups of animals underwent spatial reference learning and memory testing in the MWM. The water maze was a circular pool (diameter 1.2 m) filled with water maintained at 20° C. and made opaque by the addition of non-toxic white paint. […] In the probe trials the platform was removed from the pool, and the percentage of time spent in the quadrant where the platform was previously set was recorded.
(§5) All trials were monitored by a camera above the center of the pool connected to a SMART-LD program (Panlab S.L., Barcelona, Spain) for subsequent analysis of escape latencies, swimming speed, path length and percent time spent in each quadrant of the pool during probe trials. […]

Tg2576 mice [5] = assay: Reversal MWM after a 4-weeks wash-out period in aged-Tg2576 mice; assay type: in vivo; conditions: Retention phase of Reversal_MWM test, day 6th, after 4-weeks wash-out, Vorinostat 12.5 mg/Kg, Tadalafil 1 mg/Kg, mean ± standard deviation
Experimental: as §3
as §4, with “MWM.” for “MWM. The water maze was a circular pool (diameter 1.2 m) filled with water maintained at 20° C. and made opaque by the addition of non-toxic white paint.”
After a 4-weeks wash-out period of the drugs, a reversal phase of MWM was carried out. […] Memory retention was analyzed in a probe at day 6.
as §5

Aβ42 = Aβ42 levels in hippocampal extracts of treated Tg2576 mice (sandwich ELISA); assay type: in vivo; conditions: Vorinostat 12.5 mg/Kg, Tadalafil 1 mg/Kg, mean ± standard deviation
Experimental: (§6) Amyloid and Tau pathology was analyzed in the hippocampus of treated animals. Hippocampus was weighed and homogenized in 8 mass of ice-cold buffer containing a cold lysis buffer with protease inhibitors (0.2 M NaCl, 0.1 M HEPES (4-(2-hydroxyethyl)-1-piperazineethanesulfonic acid), 10% glycerol, 200 mM NaF, 2 mM Na4P2O7, 5 mM EDTA (ethylenediaminetetraacetic acid), 1 mM EGTA (ethylene glycol tetraacetic acid), 2 mM DTT (dithiothreitol), 0.5 mM PMSF (phenylmethylsulfonyl fluoride), 1 mM Na3VO4 and Complete Protease Inhibitor Cocktail, Roche Diagnostics), centrifuged at 14,000×g 4° C. for 20 min and the supernatant was aliquoted and stored at −80° C. Total protein concentrations were determined using the BioRad Bradford protein assay (BioRad Laboratories).
Aβ42 levels in hippocampal extracts were measured with the 3D6 antibody (specific for amino acids 1-5 of Aβ; kit from Biosource, USA) using a sensitive sandwich ELISA kit from Biosource (Camarillo, Ca, USA) according to the manufacturer's instructions.

pTau = pTau in the hippocampus of treated Tg2576 mice (western blot); assay type: in vivo; conditions: Vorinostat 12.5 mg/Kg, Tadalafil 1 mg/Kg, mean ± standard deviation
Experimental: as §6
pTau was analyzed by western blot in the hippocampus of treated animals. […] Following two washes in TBS/Tween20 and one wash in TBS alone, immunolabelled protein bands were detected using HRP-conjugated anti-rabbit or anti-mouse antibodies (diluted 1:5,000 Santa Cruz). Binding was visualised by enhanced chemiluminescence (ECL, GE Healthcare Bioscience, Buckinghamshire, UK) and autoradiographic exposure to Hyperfilm ECL (GE Healthcare Bioscience), using Quantity One™ software v.4.6.3 (Bio-Rad) for quantification.

Compound	AcH3 increment vs basal (no treatment) ([1]; Vorinostat 50 nM alone)	AcH3 increment vs basal (no treatment) ([1]; compound alone 10 nM)	AcH3 increment vs basal (no treatment) ([1]; compound alone 100 nM)	AcH3 increment vs basal (no treatment) ([1]; compound alone 500 nM)	AcH3 increment vs basal (no treatment) [2]	FC (% freezing) (Tg2576 mice [3]) [%]	MWM (% of time on right quadrant) (Tg2576 mice [4]) [%]	RMWM (% of time on right quadrant) (Tg2576 mice [5]) [%]	Aβ42 levels in hippocampus (Aβ42) [pg/mg]	pTau/tTau in hippocampus (pTau)
O=C(CCCCCCC(=O)Nc1ccccc1)NO [Vorinostat, 8-(hydroxyamino)-8-oxo-N-phenyl-octanamide]	+ (basal ×1 means no increment (+))	+ (basal ×1 means no increment (+))	++ (basal ×2≦(++))	++ (basal ×2≦(++))	+ (basal ×1 means no increment (+))	51.17 ± 14.8	16.3 ± 4.69	14.88 ± 5.88	12.81 ± 4.68	0.56 ± 0.09
CN1CC(=O)N2[C@H](c3ccc4c(c3)OCO4)c3[nH]c4ccccc4c3C[C@@H]2C1=O [Tadalafil, (6R,12aR)-6-(1,3-Benzodioxol-5-yl)-2-methyl-2,3,6,7,12,12a-hexahydropyrazino[1′,2′: 1,6]pyrido[3,4-b]indole-1,4-dione]		+ (basal ×1 means no increment (+))	+ (basal ×1 means no increment (+))	+ (basal ×1 means no increment (+))		41.38 ± 12.3	23.3 ± 7.63	21.26 ± 3.40	14.89 ± 5.17	0.32 ± 0.03
